Test results from PubChem BioAssay AID330 (DTP/NCI, 2004).
“And” between values parts separate entries of the source, which are not always exact repeats. Equal entries are not always repeated. Inconclusive results and toxic doses are left out. Rule for the calls: active = survival T/C of 150% or more; inactive = T/C below 125% in these data.

Tested on: P388 leukemia ip, CD2F1 mice, survival T/C
Test: NCI In Vivo Anticancer Drug Screen. Data for tumor model P388 Leukemia (intraperitoneal) in CD2F1 (CDF1) mice
Conditions: endpoint: median survival time, higher = longer survival
Method in brief: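 Mice carrying the transplanted tumor received test compound or vehicle. Survival was recorded in each group, and the value is the treated-group measurement divided by that of the vehicle-treated control group.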

[1] = dose: 50.0 mg/kg/injection, schedule: Q01DX009 (ip), vehicle: saline with Tween-80
[2] = dose: 100.0 mg/kg/injection, schedule: Q01DX009 (ip), vehicle: saline with Tween-80
[3] = dose: 200.0 mg/kg/injection, schedule: Q01DX009 (ip), vehicle: saline with Tween-80
[4] = dose: 400.0 mg/kg/injection, schedule: Q01DX009 (ip), vehicle: saline with Tween-80
[5] = dose: 50.0 mg/kg/injection, schedule: Q01DX005 (ip), vehicle: saline
[6] = dose: 100.0 mg/kg/injection, schedule: Q01DX005 (ip), vehicle: saline
[7] = dose: 200.0 mg/kg/injection, schedule: Q01DX005 (ip), vehicle: saline
[8] = dose: 60.0 mg/kg/injection, schedule: Q01DX005 (ip), vehicle: Klucel (hydroxypropylcellulose) (HPC)
[9] = dose: 120.0 mg/kg/injection, schedule: Q01DX005 (ip), vehicle: Klucel (hydroxypropylcellulose) (HPC)
[10] = dose: 240.0 mg/kg/injection, schedule: Q01DX005 (ip), vehicle: Klucel (hydroxypropylcellulose) (HPC)
[11] = dose: 60.0 mg/kg/injection, schedule: Q01DX005 (ip), vehicle: saline with Tween-80
[12] = dose: 50.0 mg/kg/injection, schedule: Q01DX005 (ip), vehicle: Klucel (hydroxypropylcellulose) (HPC)
[13] = dose: 100.0 mg/kg/injection, schedule: Q01DX005 (ip), vehicle: Klucel (hydroxypropylcellulose) (HPC)
[14] = dose: 200.0 mg/kg/injection, schedule: Q01DX005 (ip), vehicle: Klucel (hydroxypropylcellulose) (HPC)

Measured: T/C

Cc1cccc2c1NC(O)c1cccn1C2=O (stereo not given)
inactive: dose: 0.1 mg/kg/injection, schedule: Q01DX005 (ip), vehicle: water 98 % of control | dose: 0.2 mg/kg/injection, schedule: Q01DX005 (ip), vehicle: water 93 % of control | dose: 0.4 mg/kg/injection, schedule: Q01DX005 (ip), vehicle: water 93 % of control | dose: 0.8 mg/kg/injection, schedule: Q01DX005 (ip), vehicle: water 98 % of control | dose: 1.6 mg/kg/injection, schedule: Q01DX005 (ip), vehicle: water 93 % of control | dose: 5.0 mg/kg/injection, schedule: Q01DX005 (ip), vehicle: distilled water + Tween-80 103 % of control | dose: 10.0 mg/kg/injection, schedule: Q01DX005 (ip), vehicle: distilled water + Tween-80 94 % of control | dose: 20.0 mg/kg/injection, schedule: Q01DX005 (ip), vehicle: distilled water + Tween-80 98 % of control | dose: 40.0 mg/kg/injection, schedule: Q01DX005 (ip), vehicle: distilled water + Tween-80 95 % of control | dose: 80.0 mg/kg/injection, schedule: Q01DX005 (ip), vehicle: distilled water + Tween-80 94 % of control

COn1nnc2ccc(N)cc21
inactive: dose: 100.0 mg/kg/injection, schedule: Q04DX002 (ip), vehicle: saline 99 % of control | dose: 200.0 mg/kg/injection, schedule: Q04DX002 (ip), vehicle: saline 102 % of control

CCOC(=O)/C=C(\NC1CC(OC2C[C@](O)(C(C)=O)Cc3c(O)c4c(c(O)c32)C(=O)c2c(OC)cccc2C4=O)OC(C)C1O)C(=O)OCC (stereo not given in full)
inactive: dose: 6.25 mg/kg/injection, schedule: Q04DX003 (ip), vehicle: saline with Tween-80 106 % of control | dose: 12.5 mg/kg/injection, schedule: Q04DX003 (ip), vehicle: saline with Tween-80 113 % of control | dose: 25.0 mg/kg/injection, schedule: Q04DX003 (ip), vehicle: saline with Tween-80 105 % of control | dose: 50.0 mg/kg/injection, schedule: Q04DX003 (ip), vehicle: saline with Tween-80 124 % of control

O=C1c2cccc([N+](=O)[O-])c2C(=O)C1c1ccccn1 (stereo not given)
inactive: [1] 99 % of control | [2] 87 % of control | [3] 96 % of control | [4] 97 % of control

CNP1(NC)=NP(N(C)C)(N(C)C)=NP(N(C)C)(N(C)C)=N1
inactive: [5] 102 % of control | [6] 112 % of control | [7] 104 % of control

COc1ccccc1N=NC1=C2Nc3ccccc3N=C1N(c1ccccc1OC)C(=S)N2c1ccccc1C
inactive: dose: 50.0 mg/kg/injection, schedule: Q01DX005 (ip), vehicle: saline with Tween-80 102 % of control | dose: 100.0 mg/kg/injection, schedule: Q01DX005 (ip), vehicle: saline with Tween-80 103 % of control

CC1([N+](=O)[O-])C(=O)C2(N3CCCCC3)CCCC2C1c1ccccc1 (stereo not given)
inactive: [8] 99 % of control | [9] 96 % of control | [10] 97 % of control

O=[N+]([O-])c1ccccc1NN=NCCF
inactive: dose: 3.12 mg/kg/injection, schedule: Q01DX005 (ip), vehicle: Klucel (hydroxypropylcellulose) (HPC) 100 % of control | dose: 6.25 mg/kg/injection, schedule: Q01DX005 (ip), vehicle: Klucel (hydroxypropylcellulose) (HPC) 100 % of control | dose: 12.5 mg/kg/injection, schedule: Q01DX005 (ip), vehicle: Klucel (hydroxypropylcellulose) (HPC) 109 % of control

CC(=O)c1c(O)c(C)c(O)c2c1OC1=Cc3c(c(C)nn3-c3ccccc3)C(=O)C12C (stereo not given)
inactive: dose: 6.25 mg/kg/injection, schedule: Q01DX009 (ip), vehicle: gum acacia 104 % of control and 108 % of control | dose: 12.5 mg/kg/injection, schedule: Q01DX009 (ip), vehicle: gum acacia 103 % of control and 105 % of control | dose: 25.0 mg/kg/injection, schedule: Q01DX009 (ip), vehicle: gum acacia 101 % of control and 105 % of control | dose: 50.0 mg/kg/injection, schedule: Q01DX009 (ip), vehicle: gum acacia 98 % of control and 101 % of control | dose: 100.0 mg/kg/injection, schedule: Q01DX009 (ip), vehicle: gum acacia 99 % of control and 93 % of control | dose: 200.0 mg/kg/injection, schedule: Q01DX009 (ip), vehicle: gum acacia 86 % of control and 90 % of control

Oc1cccnc1[Se]
inactive: [8] 112 % of control | [9] 106 % of control | [10] 110 % of control

CC(C)=NNC1=NC(C)(C)P(=O)(N2CCCC2C(=O)O)S1 (stereo not given)
inactive: dose: 60.0 mg/kg/injection, schedule: Q01DX005 (ip), vehicle: saline 98 % of control | dose: 120.0 mg/kg/injection, schedule: Q01DX005 (ip), vehicle: saline 104 % of control | dose: 240.0 mg/kg/injection, schedule: Q01DX005 (ip), vehicle: saline 102 % of control

CC12CCC(c3cn[nH]c31)C2(C)C (stereo not given)
inactive: [8] 100 % of control | [9] 100 % of control | [10] 100 % of control

COc1ccc2c(CSCCO)cc(=O)oc2c1
inactive: dose: 50.0 mg/kg/injection, schedule: Q04DX003 (ip), vehicle: suspension in saline 97 % of control | dose: 100.0 mg/kg/injection, schedule: Q04DX003 (ip), vehicle: suspension in saline 100 % of control | dose: 200.0 mg/kg/injection, schedule: Q04DX003 (ip), vehicle: suspension in saline 98 % of control

CC(C)(C)N1OC2(c3ccccc3)OC3N(C(C)(C)C)OC4(c5ccccc5)OC1C2(c1ccccc1)C34c1ccccc1 (stereo not given)
inactive: [11] 111 % of control | dose: 120.0 mg/kg/injection, schedule: Q01DX005 (ip), vehicle: saline with Tween-80 87 % of control | dose: 240.0 mg/kg/injection, schedule: Q01DX005 (ip), vehicle: saline with Tween-80 86 % of control

CCn1cc(C(=O)O)c(=O)c2cnc(N3CCCC3)nc21
inactive: [1] 90 % of control | [2] 99 % of control | [3] 92 % of control

COc1cc(C2(O)c3cc4c(cc3CCN2C)OCO4)cc(OC)c1OC (stereo not given)
inactive: [12] 97 % of control | [13] 96 % of control | [14] 90 % of control

CCCCCCCCC1(OCCCS(=O)(=O)O)COc2ccccc2OCCOCCOc2ccccc2OC1
inactive: dose: 30.0 mg/kg/injection, schedule: Q01DX005 (ip), vehicle: saline with Tween-80 96 % of control | [11] 94 % of control

c1cc2ccc3ccc4ccc5ccc6ccc1c1c2c3c4c5c61
inactive: dose: 12.5 mg/kg/injection, schedule: Q01DX001 (ip), vehicle: Klucel (hydroxypropylcellulose) (HPC) 100 % of control | dose: 25.0 mg/kg/injection, schedule: Q01DX001 (ip), vehicle: Klucel (hydroxypropylcellulose) (HPC) 104 % of control | dose: 50.0 mg/kg/injection, schedule: Q01DX001 (ip), vehicle: Klucel (hydroxypropylcellulose) (HPC) 96 % of control | dose: 100.0 mg/kg/injection, schedule: Q01DX001 (ip), vehicle: Klucel (hydroxypropylcellulose) (HPC) 96 % of control

COc1ccc(N/N=C(/c2ccccc2)c2noc(-c3ccccc3)n2)cc1
inactive: [12] 101 % of control | [13] 94 % of control | [14] 93 % of control

C#CC1=CC(=O)C(OC)=CC1=O
inactive: dose: 7.5 mg/kg/injection, schedule: Q01DX005 (ip), vehicle: Klucel (hydroxypropylcellulose) (HPC) 99 % of control | dose: 15.0 mg/kg/injection, schedule: Q01DX005 (ip), vehicle: Klucel (hydroxypropylcellulose) (HPC) 100 % of control

Cc1cc(Br)c2ccccc2c1NS(=O)(=O)c1ccccc1
inactive: [2] 100 % of control | [3] 100 % of control | [4] 90 % of control

CC1(C(=O)O)CCC2(C)CCC3(C)C(=CC(=O)C4C5(C)CCC(OC6OC(C(=O)O)C(O)C(O)C6OC6OC(C(=O)O)C(O)C(O)C6O)C(C)(C)C5CCC43C)C2C1 (stereo not given)
inactive: [5] 99 % of control | [6] 97 % of control | [7] 103 % of control
